Literature values, collected in patent US8765739B2, “Azetidine compound and pharmaceutical use thereof” (Japan Tobacco Inc., priority 2009, dated 2014).

Assays:
[1] = test system: mice with collagen-induced arthritis
[2] = test system: bone absorption induced by metastatic cancer in rat
[3] = test system: rats suffering from experimental autoimmune encephalomyelitis; conditions: animal model of multiple sclerosis

In the case of `COc1cc(Oc2ccnc3cc(OC)c(OC)cc23)ccc1NC(=O)NC(C)c1nccs1` (stereo not drawn) [Ki20227], the “swellings and bone destructions” value [1] is given as “improves swellings and bone destructions”, the “bone absorption induced by metastatic cancer” value [2] is given as “improves bone absorption” and the “condition of rats with experimental autoimmune encephalomyelitis” value [3] is given as “improves the condition”.
